Laboratory results published in patent US8017585B2, “CXCR4 antagonist and use thereof” (priority 2002, dated 2011).
Numbered stars: 1 amine (or outer) side, 2 acyl side, 3 side chain; on linkers, the order of the positions; unused ones are H or OH. Bridge positions count the residues as written; N and C are the ends. Square brackets hold non-standard residues; d marks the D form. Peptide text beside a SMILES is read from it. * marks the point of attachment. X4 = CN(C)C(=N[C@@H](CCCNC(=N)N)C(=O)*)N(C)C; Pentanoyl(5-guanidino) = NC(N)=NCCCCC(=O)*; 2Nal = N[C@@H](Cc1ccc2ccccc2c1)C(=O)O; X1 = N=C(N)NCCC[C@H](NC(=N)N)C(=O)*; Glutaryl = O=C(CCCC(=O)[*:2])[*:1]; Benzoyl(4-F) = O=C(c1ccc(F)cc1)*; dCit = NC(=O)NCCC[C@@H](N)C(=O)O; Cit = NC(=O)NCCC[C@H](N)C(=O)O; Suc = O=C(CCC(=O)[*:2])[*:1]; X5 = O=C(c1ccccc1F)*; Ava = NCCCCC(=O)O

Each molecule was assayed against T1, CXCR4 receptor (Homo sapiens, UniProt P61073) (assay: Inhibition of 125I-CXCL12 binding to CXCR4 receptor on Jurkat cells). Conditions: Table 1, 125I-CXCL12, 1 hour at room temperature, compounds as acetate salt, read-out: IC50 (nM), inhibitory activity against CXCL12 binding to CXCR4 receptor.
T1 construct: 50 μL of Jurkat human T-cell leukemia cells (6×10^6 cells/mL) suspended in buffer; endogenous in cells; host or cells: Jurkat human T-cell leukemia cells
T1 sequence (P61073 whole entry): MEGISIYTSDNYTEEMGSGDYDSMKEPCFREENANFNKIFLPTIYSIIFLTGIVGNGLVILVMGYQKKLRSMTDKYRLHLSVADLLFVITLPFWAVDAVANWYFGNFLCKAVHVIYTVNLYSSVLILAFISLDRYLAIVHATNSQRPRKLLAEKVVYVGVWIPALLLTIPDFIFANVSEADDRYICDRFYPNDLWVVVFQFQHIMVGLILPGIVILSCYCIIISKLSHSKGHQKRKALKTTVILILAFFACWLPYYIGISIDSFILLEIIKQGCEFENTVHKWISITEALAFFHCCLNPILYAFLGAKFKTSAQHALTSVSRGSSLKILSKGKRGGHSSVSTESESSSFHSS
Experimental: After reaction, suction was made toward the reaction solution by 96 well GF/C filter plate, and each well's radioactivity was measured by top count. As the radioactivity index of 100% when the test compound was not added, and 0% when 100 nM of non-radioisotope-labeled CXCL12 was added, the inhibitory activity of each test compound was measured.

| SMILES | IC50 |
| --- | --- |
| N=C(N)NCCC[C@H](NC(=O)[C@@H]1CSSC[C@H](NC(=O)[C@H](Cc2ccc3ccccc3c2)NC(=O)[C@H](CCC(=O)O)NC(=O)[C@@H](N)CCCNC(=N)N)C(=O)N[C@@H](Cc2ccc(O)cc2)C(=O)N[C@@H](CCCNC(=N)N)C(=O)N[C@@H](CCCCN)C(=O)N[C@H](CCCCN)C(=O)N2CCC[C@H]2C(=O)N[C@@H](Cc2ccc(O)cc2)C(=O)N[C@@H](CCCNC(=N)N)C(=O)N[C@@H](CCCNC(N)=O)C(=O)N1)C(=O)O [TE14002, H-Arg-Glu-Nal-Cys-Tyr-Arg-Lys-DLys-Pro-Tyr-Arg-Cit-Cys-Arg-OH] (H-RE[2Nal]CYRK[dK]PYR[Cit]CR-OH; disulfide 4-13) | 680 nM |
| N=C(N)NCCC[C@H](NC(=O)[C@@H]1CSSC[C@H](NC(=O)[C@H](Cc2ccc3ccccc3c2)NC(=O)[C@H](CCCNC(=N)N)NC(=O)[C@@H](N)CCCNC(=N)N)C(=O)N[C@@H](Cc2ccc(O)cc2)C(=O)N[C@@H](CCCNC(N)=O)C(=O)N[C@@H](CCCCN)C(=O)N[C@H](CCC(=O)O)C(=O)N2CCC[C@H]2C(=O)N[C@@H](Cc2ccc(O)cc2)C(=O)N[C@@H](CCCNC(=N)N)C(=O)N[C@@H](CCCNC(N)=O)C(=O)N1)C(N)=O [TE14011, H-Arg-Arg-Nal-Cys-Tyr-Cit-Lys-DGlu-Pro-Tyr-Arg-Cit-Cys-Arg-NH2] (H-RR[2Nal]CY[Cit]K[dE]PYR[Cit]CR-NH2; disulfide 4-13) | 2.9 nM |
| N=C(N)NCCC[C@H](NC(=O)[C@@H]1CSSC[C@H](NC(=O)[C@H](Cc2ccc3ccccc3c2)NC(=O)[C@H](CCCNC(=N)N)NC(=O)[C@@H](N)CCCNC(=N)N)C(=O)N[C@@H](Cc2ccc(O)cc2)C(=O)N[C@H](CCC(=O)O)C(=O)N[C@@H](CCCCN)C(=O)N[C@H](CCCNC(N)=O)C(=O)N2CCC[C@H]2C(=O)N[C@@H](Cc2ccc(O)cc2)C(=O)N[C@@H](CCCNC(=N)N)C(=O)N[C@@H](CCCNC(N)=O)C(=O)N1)C(N)=O [TE14012, H-Arg-Arg-Nal-Cys-Tyr-DGlu-Lys-DCit-Pro-Tyr-Arg-Cit-Cys-Arg-NH2] (H-RR[2Nal]CY[dE]K[dCit]PYR[Cit]CR-NH2; disulfide 4-13) | 5.4 nM |
| CC(=O)N[C@@H](CCCNC(=N)N)C(=O)N[C@@H](CCCNC(=N)N)C(=O)N[C@@H](Cc1ccc2ccccc2c1)C(=O)N[C@H]1CSSC[C@@H](C(=O)N[C@@H](CCCNC(=N)N)C(N)=O)NC(=O)[C@H](CCCNC(N)=O)NC(=O)[C@H](CCCNC(=N)N)NC(=O)[C@H](Cc2ccc(O)cc2)NC(=O)[C@@H]2CCCN2C(=O)[C@@H](CCC(=O)O)NC(=O)[C@H](CCCCN)NC(=O)[C@H](CCCNC(N)=O)NC(=O)[C@H](Cc2ccc(O)cc2)NC1=O [TF1, Ac-Arg-Arg-Nal-Cys-Tyr-Cit-Lys-DGlu-Pro-Tyr-Arg-Cit-Cys-Arg-NH2] (Ac-RR[2Nal]CY[Cit]K[dE]PYR[Cit]CR-NH2; disulfide 4-13) | 11 nM |
| N=C(N)NCCC[C@H](NC(=O)[C@@H]1CSSC[C@H](NC(=O)[C@H](Cc2ccc3ccccc3c2)NC(=O)[C@H](CCCNC(=N)N)NC(=O)[C@H](CCCNC(=N)N)NC(=N)N)C(=O)N[C@@H](Cc2ccc(O)cc2)C(=O)N[C@@H](CCCNC(N)=O)C(=O)N[C@@H](CCCCN)C(=O)N[C@H](CCC(=O)O)C(=O)N2CCC[C@H]2C(=O)N[C@@H](Cc2ccc(O)cc2)C(=O)N[C@@H](CCCNC(=N)N)C(=O)N[C@@H](CCCNC(N)=O)C(=O)N1)C(N)=O [TF2, guanyl-Arg-Arg-Nal-Cys-Tyr-Cit-Lys-DGlu-Pro-Tyr-Arg-Cit-Cys-Arg-NH2] (X1-R[2Nal]CY[Cit]K[dE]PYR[Cit]CR-NH2; disulfide 3-12) | 3.3 nM |
| CN(C)C(=N[C@@H](CCCNC(=N)N)C(=O)N[C@@H](CCCNC(=N)N)C(=O)N[C@@H](Cc1ccc2ccccc2c1)C(=O)N[C@H]1CSSC[C@@H](C(=O)N[C@@H](CCCNC(=N)N)C(N)=O)NC(=O)[C@H](CCCNC(N)=O)NC(=O)[C@H](CCCNC(=N)N)NC(=O)[C@H](Cc2ccc(O)cc2)NC(=O)[C@@H]2CCCN2C(=O)[C@@H](CCC(=O)O)NC(=O)[C@H](CCCCN)NC(=O)[C@H](CCCNC(N)=O)NC(=O)[C@H](Cc2ccc(O)cc2)NC1=O)N(C)C [TF3, TMguanyl-Arg-Arg-Nal-Cys-Tyr-Cit-Lys-DGlu-Pro-Tyr-Arg-Cit-Cys-Arg-NH2] (X4-R[2Nal]CY[Cit]K[dE]PYR[Cit]CR-NH2; disulfide 3-12) | 9.6 nM |
| N=C(N)NCCCCC(=O)N[C@@H](CCCNC(=N)N)C(=O)N[C@@H](Cc1ccc2ccccc2c1)C(=O)N[C@H]1CSSC[C@@H](C(=O)N[C@@H](CCCNC(=N)N)C(N)=O)NC(=O)[C@H](CCCNC(N)=O)NC(=O)[C@H](CCCNC(=N)N)NC(=O)[C@H](Cc2ccc(O)cc2)NC(=O)[C@@H]2CCCN2C(=O)[C@@H](CCC(=O)O)NC(=O)[C@H](CCCCN)NC(=O)[C@H](CCCNC(N)=O)NC(=O)[C@H](Cc2ccc(O)cc2)NC1=O [TF8, desamino-R-Arg-Nal-Cys-Tyr-Cit-Lys-DGlu-Pro-Tyr-Arg-Cit-Cys-Arg-NH2] ({Pentanoyl(5-guanidino)}-R[2Nal]CY[Cit]K[dE]PYR[Cit]CR-NH2; disulfide 3-12) | 8.2 nM |
| N=C(N)NCCC[C@H](NC(=O)[C@@H]1CSSC[C@H](NC(=O)[C@H](Cc2ccc3ccccc3c2)NC(=O)[C@H](CCCNC(=N)N)NC(=O)CCCC(=O)O)C(=O)N[C@@H](Cc2ccc(O)cc2)C(=O)N[C@@H](CCCNC(N)=O)C(=O)N[C@@H](CCCCN)C(=O)N[C@H](CCC(=O)O)C(=O)N2CCC[C@H]2C(=O)N[C@@H](Cc2ccc(O)cc2)C(=O)N[C@@H](CCCNC(=N)N)C(=O)N[C@@H](CCCNC(N)=O)C(=O)N1)C(N)=O [TF11, glutaryl-Arg-Nal-Cys-Tyr-Cit-Lys-DGlu-Pro-Tyr-Arg-Cit-Cys-Arg-NH2] (Glutaryl-R[2Nal]CY[Cit]K[dE]PYR[Cit]CR-NH2; disulfide 3-12) | 630 nM |

Further molecules by falling IC50, results first:

| IC50 | SMILES |
| --- | --- |
| 250 nM | N=C(N)NCCC[C@H](NC(=O)[C@@H]1CSSC[C@H](NC(=O)[C@H](Cc2ccc3ccccc3c2)NC(=O)[C@H](CCCNC(=N)N)NC(=N)N)C(=O)N[C@@H](Cc2ccc(O)cc2)C(=O)N[C@@H](CCCNC(N)=O)C(=O)N[C@@H](CCCCN)C(=O)N[C@H](CCC(=O)O)C(=O)N2CCC[C@H]2C(=O)N[C@@H](Cc2ccc(O)cc2)C(=O)N[C@@H](CCCNC(=N)N)C(=O)N[C@@H](CCCNC(N)=O)C(=O)N1)C(N)=O [TF9, guanyl-Arg-Nal-Cys-Tyr-Cit-Lys-DGlu-Pro-Tyr-Arg-Cit-Cys-Arg-NH2] (X1-[2Nal]CY[Cit]K[dE]PYR[Cit]CR-NH2; disulfide 2-11) |
| 48 nM | N=C(N)NCCC[C@H](NC(=O)[C@@H]1CSSC[C@H](NC(=O)[C@H](Cc2ccc3ccccc3c2)NC(=O)[C@H](CCCNC(=N)N)NC(=O)CCC(=O)O)C(=O)N[C@@H](Cc2ccc(O)cc2)C(=O)N[C@@H](CCCNC(N)=O)C(=O)N[C@@H](CCCCN)C(=O)N[C@H](CCC(=O)O)C(=O)N2CCC[C@H]2C(=O)N[C@@H](Cc2ccc(O)cc2)C(=O)N[C@@H](CCCNC(=N)N)C(=O)N[C@@H](CCCNC(N)=O)C(=O)N1)C(N)=O [TF10, succinyl-Arg-Nal-Cys-Tyr-Cit-Lys-DGlu-Pro-Tyr-Arg-Cit-Cys-Arg-NH2] (Suc-R[2Nal]CY[Cit]K[dE]PYR[Cit]CR-NH2; disulfide 3-12) |
| 9.3 nM | N=C(N)NCCC[C@H](NC(=O)[C@@H]1CSSC[C@H](NC(=O)[C@H](Cc2ccc3ccccc3c2)NC(=O)[C@H](CCCNC(=N)N)NC(=O)[C@@H](N)CCCNC(=N)N)C(=O)N[C@@H](Cc2ccc(O)cc2)C(=O)N[C@H](CCC(=O)O)C(=O)N[C@@H](CCCCN)C(=O)N[C@H](CCC(=O)O)C(=O)N2CCC[C@H]2C(=O)N[C@@H](Cc2ccc(O)cc2)C(=O)N[C@@H](CCCNC(=N)N)C(=O)N[C@@H](CCCNC(N)=O)C(=O)N1)C(N)=O [TE14013, H-Arg-Arg-Nal-Cys-Tyr-DGlu-Lys-DGlu-Pro-Tyr-Arg-Cit-Cys-Arg-NH2] (H-RR[2Nal]CY[dE]K[dE]PYR[Cit]CR-NH2; disulfide 4-13) |
| 5.7 nM | N=C(N)NCCC[C@H](NC(=O)[C@@H]1CSSC[C@H](NC(=O)[C@H](Cc2ccc3ccccc3c2)NC(=O)[C@H](CCCNC(=N)N)NC(=O)CCCCN)C(=O)N[C@@H](Cc2ccc(O)cc2)C(=O)N[C@@H](CCCNC(N)=O)C(=O)N[C@@H](CCCCN)C(=O)N[C@H](CCC(=O)O)C(=O)N2CCC[C@H]2C(=O)N[C@@H](Cc2ccc(O)cc2)C(=O)N[C@@H](CCCNC(=N)N)C(=O)N[C@@H](CCCNC(N)=O)C(=O)N1)C(N)=O [TF7, APA-Arg-Nal-Cys-Tyr-Cit-Lys-DGlu-Pro-Tyr-Arg-Cit-Cys-Arg-NH2] (H-[Ava]R[2Nal]CY[Cit]K[dE]PYR[Cit]CR-NH2; disulfide 4-13) |
| 3.9 nM | N=C(N)NCCC[C@H](NC(=O)[C@@H]1CSSC[C@H](NC(=O)[C@H](Cc2ccc3ccccc3c2)NC(=O)[C@H](CCCNC(=N)N)NC(=O)[C@H](CCCNC(=N)N)NC(=O)c2ccccc2F)C(=O)N[C@@H](Cc2ccc(O)cc2)C(=O)N[C@@H](CCCNC(N)=O)C(=O)N[C@@H](CCCCN)C(=O)N[C@H](CCC(=O)O)C(=O)N2CCC[C@H]2C(=O)N[C@@H](Cc2ccc(O)cc2)C(=O)N[C@@H](CCCNC(=N)N)C(=O)N[C@@H](CCCNC(N)=O)C(=O)N1)C(N)=O [TF6, 2F-benzoyl-Arg-Arg-Nal-Cys-Tyr-Cit-Lys-DGlu-Pro-Tyr-Arg-Cit-Cys-Arg-NH2] (X5-RR[2Nal]CY[Cit]K[dE]PYR[Cit]CR-NH2; disulfide 4-13) |
| 2.8 nM | N=C(N)NCCC[C@H](NC(=O)[C@@H]1CSSC[C@H](NC(=O)[C@H](Cc2ccc3ccccc3c2)NC(=O)[C@H](CCCNC(=N)N)NC(=O)[C@H](CCCNC(=N)N)NC(=O)c2ccc(F)cc2)C(=O)N[C@@H](Cc2ccc(O)cc2)C(=O)N[C@@H](CCCNC(N)=O)C(=O)N[C@@H](CCCCN)C(=O)N[C@H](CCC(=O)O)C(=O)N2CCC[C@H]2C(=O)N[C@@H](Cc2ccc(O)cc2)C(=O)N[C@@H](CCCNC(=N)N)C(=O)N[C@@H](CCCNC(N)=O)C(=O)N1)C(N)=O [TF5, 4F-benzoyl-Arg-Arg-Nal-Cys-Tyr-Cit-Lys-DGlu-Pro-Tyr-Arg-Cit-Cys-Arg-NH2] ({Benzoyl(4-F)}-RR[2Nal]CY[Cit]K[dE]PYR[Cit]CR-NH2; disulfide 4-13) |
